Experimental data: patent publication US20120301562A1, “COMPOSITION FOR IMPROVING BLOOD CIRCULATION, CONTAINING EXTRACT OF LINDERA OBTUSILOBA AS ACTIVE INGREDIENT” (priority 2009, published 2012)

How the values were obtained:
[1] = system: platelet aggregation induced by ADP; assay: Inhibition of rat washed platelet aggregation induced by ADP (turbidimetric); assay type: cell-based; details: ADP 22 μM, rat washed platelets
Description: (§1) Rats were paralyzed with ethyl ether and blood samples were collected from abdominal aorta with a syringe containing anticoagulant 0.15 M sodium citrate whose volume ratio is 1:9 compared with blood sample volume. Blood samples were centrifuged at 200×g for 10 min to obtain platelet rich plasma (PRP) as supernatant. PRP was centrifuged at 800×g for 15 min, and precipitated platelets were washed two times with a washing buffer (137 mM NaCl, 2.9 mM KCl, 1 mM MgCl2, 5 mM glucose, 12 mM NaHCO3, 0.34 mM Na2HPO4, 1 mM EDTA, 20 mM HEPES, 0.25% BSA, pH 7.4) and suspended in a suspension buffer (suspension buffer. 137 mM NaCl, 2.9 mM KCl, 1 mM MgCl2, 5 mM glucose, 12 mM NaHCO3, 0.34 mM Na2HPO4, 20 mM HEPES, 0.25% BSA, pH 7.4) to prepare washed platelets. Platelet numbers of washed platelets used in measurement of inhibitory effect on platelet aggregation were counted with a cell counter (cell counter. Hema-vet HV950FS, Drew Scientific, USA), and washed platelets were diluted with a buffer solution so as to adjust the platelet count to 3×10^8 platelets/mL. Since platelets are aggregated at low temperatures, the foregoing experiment was carried out at room temperature.
(§2) Inhibitory effect on rat platelet aggregation was measured by turbidimetric method using an aggrerometer (Chrono-Log Co., Ltd., Havertown, Pa., USA). Washed platelets were incubated at 37° C. for 3 min and treated with various concentrations of extracts. After 2 min, platelet aggregation was induced by a platelet aggregation-inducing substance, ADP (22 μM) or collagen (20 μg/mL). Platelet aggregation was measured for 10 min and the inhibition extent of platelet aggregation was calculated. Platelets which were not treated with extracts were used for control, and the inhibition extent of platelet aggregation was calculated using the following equation.
(§3) The inhibition extent of platelet aggregation=[(A−B)/A]×100 [Equation 1] • A: aggregation % of control • B: aggregation % of extract-treated platelets

[2] = system: platelet aggregation induced by collagen; assay: Inhibition of rat washed platelet aggregation induced by collagen (turbidimetric); assay type: cell-based; details: collagen 20 μg/mL, rat washed platelets
Description: as §1, §2, §3

thromboembolism = assay: Inhibitory effect on thromboembolism induced by collagen and epinephrine injected into the tail vein; assay type: in vivo, mouse; details: oral administration 1 h prior to collagen + epinephrine injection, mice
Description: Experimental thrombosis induction in animals was based on Diminno's method. When a platelet aggregation inducer is injected into a tail vein of a mouse, a large amount of thrombus formation is induced in the pulmonary artery to kill the animal, and by observing whether this can be recovered or not, the inhibition extent of thrombus formation is measured. A mixture solution of collagen (Chrono-Log, […]) and epinephrine (Chrono-Log, 2 μg/mouse) was prepared to be contained in 200 μL of physiological saline as a platelet aggregation inducer and injected into the tail vein of mice. Extract suspension or physiological saline was orally administered in proportion to body weight at 1 h prior to injection of the platelet aggregation inducer to investigate antithrombotic effect. The antithrombotic effect was calculated as percentage of the number of experimental animals protected from hind leg paralysis or death induced by the injection of platelet aggregation inducer. Antithrombotic effect of extracts was determined by observing whether recovery from the persistence of paralysis for 15 min or longer after injection, death, or paralysis occurred or not. The survival rate (%) of each group was calculated with the following equation.
The survival rate (%)=(D/C)×100 [Equation 2] • C: the number of animals to which collagen was precisely injected. • D: the number of survived animals among animals to which collagen was precisely injected.

CC(=O)Oc1ccccc1C(=O)O [Aspirin]
inhibition at 100 µg/mL ([1]; final concentration 0.1 mg/mL): 15.9% | inhibition at 1000 µg/mL ([1]; final concentration 1 mg/mL): 52.3% | inhibition at 10000 µg/mL ([1]; final concentration 10 mg/mL): 93.2% | inhibition at 100 µg/mL ([2]; final concentration 0.1 mg/mL): 18.5% | inhibition at 1000 µg/mL ([2]; final concentration 1 mg/mL): 51.9% | inhibition at 10000 µg/mL ([2]; final concentration 10 mg/mL): 94.4% | 1st (survived animals/injected animals, D/C) (thromboembolism; 1st experiment): 15/19 | 2nd (survived animals/injected animals, D/C) (thromboembolism; 2nd experiment): 9/20 | 3rd (survived animals/injected animals, D/C) (thromboembolism; 3rd experiment): 9/19 | Survival rate (%) (thromboembolism; (D/C)×100): 56% | Sum (D/C) (thromboembolism; sum of three experiments): 33/58
